Experiment [1] has as its system Male WistarF/Han (WF) rats. Description: Social interaction (SI) test of anxiety, i.c.v. P32/98 and NPY (Example 3). Format: in vivo, rat. The conditions noted are these: i.c.v. 5 pmol-500 nmol. How it is done: Animals. […]
(§1) Animals were randomly divided into two sets of four experimental groups (n=5-6/group), which completed different consecutive SI test of anxiety. […] The time spent in active social interaction (SI-time), 1 h and 12 h food-intake were measured. […]
Social interaction (SI) test. […] Behavior was monitored using a video camera placed above the field inside the testing/isolation box. The SI behavior of both rats was recorded on-line from a monitor placed outside on top of the box. The following parameters were scored by an observer (HPN) unaware of the substrain of rats: duration of time spent in sniffing, following, crawling under and over other rats, but not passive body contact (resting, sleeping). […]
Statistical analysis. Data from repeated observations (food intake) were analyzed by two-way analyses of variance for repeated measures (ANOVA) (factors: “substrain” and “food intake” as repeated measure). […]

In experiment [2] the test system is Male WistarF/Han (WF) rats. Briefly: 1 h and 12 h food-intake after i.c.v. P32/98 and NPY (Example 3). Format: in vivo, rat. The procedure:
Animals. Male WistarF/Han (WF) rats (Central Animal Laboratory, Hannover Medical School, Hannover, Germany, weighing 330-370 g, were housed in a sound-proof, temperature controlled (24.0±0.5° C.) room under specific pathogen free conditions with a 12/12 h dark/light cycle (lights on at 07.00 with illumination level of 80 Lux). Food (Altromin lab chow pellets) and tap water were available ad libitum. Under ketamine/xylasine (100/5 mg/kg, i.p.) anesthesia, the rats were fixed in a Kopf stereotaxic frame and implanted with cannulae (Plastic One, Inc., Roanoke, Va., USA) above the lateral ventricle. All research and animal care procedures were approved by the Lower Saxony district government (Hannover, Germany) and followed principles described in the European Community's Council Directive of 24 Nov. 1986 (86/609/EEC).
Surgery and i.c.v. application. For surgery, rats were anesthetized and prepared with i.c.v. cannulae (coordinates: A: −0.7 mm caudal, L: 1.4 mm lateral to bregma; and V3.2 mm ventral to the skull surface; tooth bar +3.0 above ear bars) using standard stereotaxic procedures as described in detail elsewhere (von Hörsten et al., 1998a, b, c). After a 7-day recovery period, successful ventricle cannulation was confirmed by an angiotensin drinking response (von Hörsten et al., 1998a). Rats showing a positive drinking response (n=59) were then habituated to experimental handling by daily sham injections for seven days.
as §1
Statistical analysis. Data from repeated observations (food intake) were analyzed by two-way analyses of variance for repeated measures (ANOVA) (factors: “substrain” and “food intake” as repeated measure). Data obtained from simple measures such as DPIV activity or SI time were analyzed by one-way (factor: “substrain”) ANOVA. […]

We go through 1 compound from patent US8168199B2, “Dipeptidyl peptidase IV inhibitors for the treatment of schizophrenia and depression” (priority 2000, dated 2012).

As to `CC[C@H](C)[C@H](N)C(=O)N1CCSC1` [P32/98], in experiment [1], the “time spent in active social interaction (SI-time), P32/98 alone” value is listed as ““bell-shaped” dose-dependent anxiolytic-like effects”. In addition, the “dose at which the 1 h feeding effect reached significance” value in experiment [2] (i.c.v.) came to 0.05 nmol. Besides, the “amount of food eaten within 1 h” value in experiment [2] (i.c.v. P32/98 5 pmol-500 nmol, NPY 50 pmol-1.6 nmol, dark cycle) is recorded as “mild feeding effect”.
